Laboratory results taken from patent publication US11779606B2, “Peptides and combination of peptides of non-canonical origin for use in immunotherapy against different types of cancers” (Immatics Biotechnologies GmbH, priority 2018, dated 2023).

Assays:
CD8+ T cells = assay: In vitro T-cell priming assay (immunogenicity) with artificial APCs loaded with peptide/MHC complexes and anti-CD28; assay type: cell-based, human; settings: CD8+ T cells of healthy HLA-A*02 donors, multimer staining
Text: In order to obtain information regarding the immunogenicity of the TUMAPs of the present invention, the inventors performed investigations using an in vitro T-cell priming assay based on repeated stimulations of CD8+ T cells with artificial antigen presenting cells (aAPCs) loaded with peptide/MHC complexes and anti-CD28 antibody.
In order to perform in vitro stimulations by artificial antigen presenting cells loaded with peptide-MHC complex (pMHC) and anti-CD28 antibody, the inventors first isolated CD8+ T cells from fresh HLA-A*02 leukapheresis products via positive selection using CD8 microbeads (Miltenyi Biotec, Bergisch-Gladbach, Germany) of healthy donors obtained from the University clinics Mannheim, Germany, after informed consent.
PBMCs and isolated CD8+ lymphocytes were incubated in T-cell medium (TCM) until use consisting of RPMI-Glutamax (Invitrogen, Karlsruhe, Germany) supplemented with 10% heat inactivated human AB serum (PAN-Biotech, Aidenbach, Germany), 100 U/ml Penicillin/100 μg/ml Streptomycin (Cambrex, Cologne, Germany), 1 mM sodium pyruvate (CC Pro, Oberdorla, Germany), 20 μg/ml Gentamycin (Cambrex). 2.5 ng/ml IL-7 (PromoCell, Heidelberg, Germany) and 10 U/ml IL-2 (Novartis Pharma, Nümberg, Germany) were also added to the TCM at this step.
Generation of pMHC/anti-CD28 coated beads, T-cell stimulations and readout was performed in a highly defined in vitro system using four different pMHC molecules per stimulation condition and 8 different pMHC molecules per readout condition.
The purified co-stimulatory mouse IgG2a anti human CD28 Ab 9.3 (Jung et al., 1987) was chemically biotinylated using Sulfo-N-hydroxysuccinimidobiotin as recommended by the manufacturer (Perbio, Bonn, Germany). Beads used were 5.6 μm diameter streptavidin coated polystyrene particles (Bangs Laboratories, Illinois, USA).
800.000 beads/200 μl were coated in 96-well plates in the presence of 4×12.5 ng different biotin-pMHC, washed and 600 ng biotin anti-CD28 were added subsequently in a volume of 200 μl. Stimulations were initiated in 96-well plates by co-incubating […] CD8+ T cells with 2×10^5 washed coated beads in 200 μl TCM supplemented with 5 ng/ml IL-12 (PromoCell) for 3 days at 37° C. Half of the medium was then exchanged by fresh TCM supplemented with 80 U/ml IL-2 and incubating was continued for 4 days at 37° C. This stimulation cycle was performed for a total of three times. For the pMHC multimer readout using 8 different pMHC molecules per condition, a two-dimensional combinatorial coding approach was used as previously described (Andersen et al., 2012) with minor modifications encompassing coupling to 5 different fluorochromes. Finally, multimeric analyses were performed by staining the cells with Live/dead near IR dye (Invitrogen, Karlsruhe, Germany), CD8-FITC antibody clone SK1 (BD, Heidelberg, Germany) and fluorescent pMHC multimers. For analysis, a BD LSRII SORP cytometer equipped with appropriate lasers and filters was used. Peptide specific cells were calculated as percentage of total CD8+ cells. Evaluation of multimeric analysis was done using the FlowJo software (Tree Star, Oreg., USA). In vitro priming of specific multimer+CD8+ lymphocytes was detected by comparing to negative control stimulations.

HLA-A*02:01 = HLA-A*02:01 (Homo sapiens, UniProt P04439, D140Y/D185E/D98H/E176V/E277Q/G131W/G231S/I119V/I121R/I166T/I218V/L300P/L318F/N151K/N90K/P208A/P217A/Q86G/Q94H/R138H/R169H/T345S); assay: MHC binding assay (UV-ligand exchange, β2m ELISA); settings: MHC class I binding score; peptide exchange yield, binding to HLA-A*02:01, UV-ligand exchange with β2m ELISA
Text: Candidate peptides for T cell based therapies according to the present invention were further tested for their MHC binding capacity (affinity).
The individual peptide-MHC complexes were produced by UV-ligand exchange, where a UV-sensitive peptide is cleaved upon UV-irradiation and exchanged with the peptide of interest as analyzed. Only peptide candidates that can effectively bind and stabilize the peptide-receptive MHC molecules prevent dissociation of the MHC complexes. To determine the yield of the exchange reaction, an ELISA was performed based on the detection of the light chain (β2m) of stabilized MHC complexes. The assay was performed as generally described in Rodenko et al. (Rodenko et al., 2006).
96 well MAXISorp plates (NUNC) were coated over night with 2 ug/ml streptavidin in PBS at room temperature, washed 4× and blocked for 1h at 37° C. in 2% BSA containing blocking buffer. Refolded HLA-A*02:01/MLA-001 monomers served as standards, covering the range of 15-500 ng/ml. Peptide-MHC monomers of the UV-exchange reaction were diluted 100 fold in blocking buffer. Samples were incubated for 1 h at 37° C., washed four times, incubated with 2 ug/ml HRP conjugated anti-β2m for 1h at 37° C., washed again and detected with TMB solution that is stopped with […]. Absorption was measured at 450 nm. Candidate peptides that show a high exchange yield (preferably higher than 50%, most preferred higher than 75%) are generally preferred for a generation and production of antibodies or fragments thereof, and/or T cell receptors or fragments thereof, as they show sufficient avidity to the MHC molecules and prevent dissociation of the MHC complexes.

| Substance | Wells positive [%] (CD8+ T cells; Table 13b) | Peptide exchange (HLA-A*02:01) | Wells positive [%] (CD8+ T cells; Table 13a) |
| --- | --- | --- | --- |
| 74 (TLLSYSIPL; listed as Homo sapiens) [compound 74] | + (<20% = +) | ++++ (≥75% = ++++) | – |
| 102 (GLDPTQFRV; listed as Homo sapiens) [compound 102] | – | – | ++++ (>=70% = ++++) |
| 29 (LLWEFPSMA; listed as Homo sapiens) [compound 29] | ++ (20-49% = ++) | ++++ (≥75% = ++++) | – |
| 103 (SLVSYLDKV; listed as Homo sapiens) [compound 103] | – | – | + (<20% = +) |
| 3 (FLLVPSPIWQL; listed as Homo sapiens) [compound 3] | + (<20% = +) | ++++ (≥75% = ++++) | – |
| 65 (IAISQLTFV; listed as Homo sapiens) [compound 65] | + (<20% = +) | ++++ (≥75% = ++++) | – |
| 18 (KMMTFFQGL; listed as Homo sapiens) [compound 18] | ++++ (≥70% = ++++) | ++++ (≥75% = ++++) | – |
| 13 (FLDEGSLLRL; listed as Homo sapiens) [compound 13] | + (<20% = +) | ++++ (≥75% = ++++) | – |
| 1 (KLLDFSTRI; listed as Homo sapiens) [compound 1] | + (<20% = +) | ++++ (≥75% = ++++) | – |
| 48 (MLAEIHPKA; listed as Homo sapiens) [compound 48] | +++ (50-69% = +++) | ++++ (≥75% = ++++) | – |
| 101 (KLPEGHLPEV; listed as Homo sapiens) [compound 101] | + (<20% = +) | ++++ (≥75% = ++++) | – |
| 26 (KLWTSLVNL; listed as Homo sapiens) [compound 26] | +++ (50-69% = +++) | ++++ (≥75% = ++++) | – |
| 31 (VVLPIVITL; listed as Homo sapiens) [compound 31] | ++ (20-49% = ++) | ++++ (≥75% = ++++) | – |
| 68 (KLLADAFKV; listed as Homo sapiens) [compound 68] | ++++ (≥70% = ++++) | ++++ (≥75% = ++++) | – |
| 33 (FASERPPSV; listed as Homo sapiens) [compound 33] | +++ (50-69% = +++) | ++++ (≥75% = ++++) | – |
| 19 (MLLPWLPKL; listed as Homo sapiens) [compound 19] | +++ (50-69% = +++) | ++++ (≥75% = ++++) | – |
| 2 (ALLDVLVKL; listed as Homo sapiens) [compound 2] | + (<20% = +) | ++++ (≥75% = ++++) | – |
| 7 (ALWEEVKATSL; listed as Homo sapiens) [compound 7] | + (<20% = +) | ++++ (≥75% = ++++) | – |
| 46 (AMVEIIPKV; listed as Homo sapiens) [compound 46] | + (<20% = +) | ++++ (≥75% = ++++) | – |
| 36 (FQVTRTTGV; listed as Homo sapiens) [compound 36] | + (<20% = +) | ++++ (≥75% = ++++) | – |
| 49 (FLWDPRDVVL; listed as Homo sapiens) [compound 49] | + (<20% = +) | ++++ (≥75% = ++++) | – |
| 96 (KIIEDLANTV; listed as Homo sapiens) [compound 96] | ++ (20-49% = ++) | ++++ (≥75% = ++++) | – |
| 51 (GLLTQVHIL; listed as Homo sapiens) [compound 51] | + (<20% = +) | ++++ (≥75% = ++++) | – |
| 50 (GLASYLDRV; listed as Homo sapiens) [compound 50] | + (<20% = +) | ++++ (≥75% = ++++) | – |
| 37 (KILDEFYNV; listed as Homo sapiens) [compound 37] | +++ (50-69% = +++) | ++++ (≥75% = ++++) | – |
| 6 (ALHDSPVYL; listed as Homo sapiens) [compound 6] | ++ (20-49% = ++) | ++++ (≥75% = ++++) | – |
| 38 (SLSAWLPSL; listed as Homo sapiens) [compound 38] | + (<20% = +) | ++++ (≥75% = ++++) | – |
| 47 (ALLPGVPGL; listed as Homo sapiens) [compound 47] | ++ (20-49% = ++) | ++++ (≥75% = ++++) | – |
| 40 (FTLPFLVNL; listed as Homo sapiens) [compound 40] | +++ (50-69% = +++) | ++++ (≥75% = ++++) | – |
| 4 (YLGDSHVLL; listed as Homo sapiens) [compound 4] | + (<20% = +) | ++++ (≥75% = ++++) | – |
